Consider twelve compounds from PubChem BioAssay AID1259407 (Chemical Carcinogenesis Research Information System (CCRIS), 2018).

SMILES strings stand for the structures. Activity calls are given as the source filed them. How the calls were made is not given here.

This data set relates to CCRIS mutagenicity, Ames/micronucleus/aberration tests. Kind of data set: CCRIS mutagenicity studies.
Where [1] appears, read: Test System: AMES SALMONELLA TYPHIMURIUM, Strain/Indicator: TA100, Metabolic Activation: NONE, Method: STANDARD PLATE.
Setting [2] is: Test System: AMES SALMONELLA TYPHIMURIUM, Strain/Indicator: TA100, Metabolic Activation: RAT, LIVER, S-9, AROCLOR 1254, Method: STANDARD PLATE.

Consider `OC/C=C/c1ccccc1`, for which the mutagenic call is, setting by setting: (Test System: AMES SALMONELLA TYPHIMURIUM, Strain/Indicator: TA98, Metabolic Activation: HAMSTER, LIVER, S-9, AROCLOR 1254 (2.5-20%), Method: PREINCUBATION) “inactive; negative”; (Test System: AMES SALMONELLA TYPHIMURIUM, Strain/Indicator: TA98, Metabolic Activation: HAMSTER, LIVER, S-9, AROCLOR 1254, Method: STANDARD PLATE) “inactive; negative”; (Test System: AMES SALMONELLA TYPHIMURIUM, Strain/Indicator: TA98, Metabolic Activation: NONE, Method: STANDARD PLATE) “inactive; negative”; (Test System: AMES SALMONELLA TYPHIMURIUM, Strain/Indicator: TA98, Metabolic Activation: RAT, LIVER, S-9, AROCLOR 1254, Method: STANDARD PLATE) “inactive; negative”; (Test System: AMES SALMONELLA TYPHIMURIUM, Strain/Indicator: TA100, Metabolic Activation: HAMSTER, LIVER, S-9, AROCLOR 1254 (2.5-20%), Method: PREINCUBATION) “inactive; negative”; (Test System: AMES SALMONELLA TYPHIMURIUM, Strain/Indicator: TA100, Metabolic Activation: HAMSTER, LIVER, S-9, AROCLOR 1254, Method: STANDARD PLATE) “inactive; negative”. Moreover, the mutagenic call runs as follows: under setting [1], “inactive; negative”; under setting [2], “inactive; negative”; (Test System: AMES SALMONELLA TYPHIMURIUM, Strain/Indicator: TA102, Metabolic Activation: HAMSTER, LIVER, S-9, AROCLOR 1254, Method: PREINCUBATION) “inactive; negative”; (Test System: AMES SALMONELLA TYPHIMURIUM, Strain/Indicator: TA102, Metabolic Activation: NONE, Method: PREINCUBATION) “inactive; negative”; (Test System: AMES SALMONELLA TYPHIMURIUM, Strain/Indicator: TA102, Metabolic Activation: RAT, LIVER, S-9, AROCLOR 1254, Method: PREINCUBATION) “inactive; negative”; (Test System: AMES SALMONELLA TYPHIMURIUM, Strain/Indicator: TA1535, Metabolic Activation: HAMSTER, LIVER, S-9, AROCLOR 1254, Method: STANDARD PLATE) “inactive; negative”. Moreover, the mutagenic call reads like this: (Test System: AMES SALMONELLA TYPHIMURIUM, Strain/Indicator: TA1535, Metabolic Activation: NONE, Method: STANDARD PLATE) “inactive; negative”; (Test System: AMES SALMONELLA TYPHIMURIUM, Strain/Indicator: TA1535, Metabolic Activation: RAT, LIVER, S-9, AROCLOR 1254, Method: STANDARD PLATE) “inactive; negative”; (Test System: AMES SALMONELLA TYPHIMURIUM, Strain/Indicator: TA1537, Metabolic Activation: HAMSTER, LIVER, S-9, AROCLOR 1254, Method: STANDARD PLATE) “inactive; negative”; (Test System: AMES SALMONELLA TYPHIMURIUM, Strain/Indicator: TA1537, Metabolic Activation: NONE, Method: PREINCUBATION) “inactive; negative”; (Test System: AMES SALMONELLA TYPHIMURIUM, Strain/Indicator: TA1537, Metabolic Activation: NONE, Method: STANDARD PLATE) “inactive; negative”; (Test System: AMES SALMONELLA TYPHIMURIUM, Strain/Indicator: TA1537, Metabolic Activation: RAT, LIVER, S-9, AROCLOR 1254, Method: STANDARD PLATE) “inactive; negative”. In addition, the mutagenic call was “inactive; negative” (Test System: AMES SALMONELLA TYPHIMURIUM, Strain/Indicator: TA1538, Metabolic Activation: HAMSTER, LIVER, S-9, AROCLOR 1254, Method: STANDARD PLATE); “inactive; negative” (Test System: AMES SALMONELLA TYPHIMURIUM, Strain/Indicator: TA1538, Metabolic Activation: NONE, Method: STANDARD PLATE); “inactive; negative” (Test System: AMES SALMONELLA TYPHIMURIUM, Strain/Indicator: TA1538, Metabolic Activation: RAT, LIVER, S-9, AROCLOR 1254, Method: STANDARD PLATE); “active; positive. reevaluation of results: inconclusive” (Test System: MOUSE LYMPHOMA, Strain/Indicator: L5178Y (TK+/TK-), Metabolic Activation: NONE, Method: SUSPENSION/PLATE); “active; positive. reevaluation of results: positive” (Test System: MOUSE LYMPHOMA, Strain/Indicator: L5178Y (TK+/TK-), Metabolic Activation: RAT, LIVER, S-9, AROCLOR 1254, Method: SUSPENSION/PLATE); “inactive; negative” (Test System: Mouse lymphoma, Strain/Indicator: L5178Y (tk+/tk-), Metabolic Activation: None, Method: Suspension/plate). For the setting “Test System: Mouse lymphoma, Strain/Indicator: L5178Y (tk+/tk-), Metabolic Activation: Rat, Liver, S-9, Aroclor 1254, Method: Suspension/plate”, the mutagenic call is “inactive; negative”.
Regarding `C[C@@](Cc1ccc(O)c(O)c1)(NN)C(=O)O`, the mutagenic call reads like this: under setting [1], “active; positive”; (Test System: AMES SALMONELLA TYPHIMURIUM, Strain/Indicator: TA100, Metabolic Activation: RAT, LIVER, S-9, PHENOBARBITAL, Method: STANDARD PLATE) “active; positive”; (Test System: UDS RAT HEPATOCYTES, Strain/Indicator: THY INCORP, Metabolic Activation: NONE, Method: AUTORADIOGRAPHY) “inactive; negative”.
Turning to `COc1cc(OC)nc(NC(=O)NS(=O)(=O)c2ncccc2C(=O)N(C)C)n1`, the mutagenic call reads like this: (Test System: Chinese hamster lung cells, Strain/Indicator: V79 (HPRT)/6-Thioguanine, Metabolic Activation: None, Method: Standard plate?) “inactive; negative”; (Test System: Chinese hamster lung cells, Strain/Indicator: V79 (HPRT)/6-Thioguanine, Metabolic Activation: S-9, Method: Standard plate?) “inactive; negative”; (Test System: TA97, Metabolic Activation: None, Method: Preincubation?) “inactive; negative”; (Test System: TA97, Metabolic Activation: S-9, Method: Preincubation?) “inactive; negative”; (Test System: TA98, Metabolic Activation: None, Method: Preincubation?) “inactive; negative”; (Test System: TA98, Metabolic Activation: S-9, Method: Preincubation?) “inactive; negative”. The mutagenic call by setting is: (Test System: TA100, Metabolic Activation: None, Method: Preincubation?) “inactive; negative”; (Test System: TA100, Metabolic Activation: S-9, Method: Preincubation?) “inactive; negative”; (Test System: TA102, Metabolic Activation: None, Method: Preincubation?) “inactive; negative”; (Test System: TA102, Metabolic Activation: S-9, Method: Preincubation?) “inactive; negative”.
On to `COC1=CC(=O)O[C@@H](CCc2ccc3c(c2)OCO3)C1`, for which the mutagenic call (Test System: Mouse lymphoma cells, Strain/Indicator: L5178Y ( tk+/tk-), Metabolic Activation: Human, Liver, S-9, Method: Suspension/plate) was “inactive; negative”.
Consider `O=Cc1cc(=O)[nH]c(=O)[nH]1`, for which, where the note is “Test System: CHINESE HAMSTER V-79, Strain/Indicator: V-79 (HPRT)/6-THIOGUANINE, Metabolic Activation: NONE, Method: STANDARD PLATE”, the mutagenic call was “active; positive”.
As to `NCCc1cc(O)c(O)cc1O`, the mutagenic call is “active; positive” (Test System: AMES SALMONELLA TYPHIMURIUM, Strain/Indicator: TA102, Metabolic Activation: NONE, Method: STANDARD PLATE) and “active; positive” (Test System: AMES SALMONELLA TYPHIMURIUM, Strain/Indicator: TA104, Metabolic Activation: NONE, Method: STANDARD PLATE).
For `Cn1c(C(F)(F)F)cc2c(N3CCCC3)nc(N3CCCC3)nc21`, the mutagenic call (Test System: UDS RAT HEPATOCYTES, Strain/Indicator: THY-INCORP, Metabolic Activation: NONE, Method: AUTORADIOGRAPHY) is “inactive; negative”.
On to `O=[N+]([O-])c1ccccc1SSC(Cl)=C(Cl)Cl`, for which the mutagenic call is, setting by setting: (Test System: AMES SALMONELLA TYPHIMURIUM, Strain/Indicator: TA100(DNP6), Metabolic Activation: NONE, Method: PREINCUBATION) “active; positive”; (Test System: AMES SALMONELLA TYPHIMURIUM, Strain/Indicator: TA100(NR), Metabolic Activation: NONE, Method: PREINCUBATION) “active; positive”.
Take `COc1ccc2c(c1)C(=O)c1nccc3cc4c(c-2c13)OCO4`: the mutagenic call (Test System: AMES SALMONELLA TYPHIMURIUM, Strain/Indicator: TA98, Metabolic Activation: RAT, LIVER, S-9, PHENOBARBITAL AND BETA-NAPHTHOFLAVONE, Method: PREINCUBATION) is “active; positive” and the mutagenic call (Test System: AMES SALMONELLA TYPHIMURIUM, Strain/Indicator: TA100, Metabolic Activation: RAT, LIVER, S-9, PHENOBARBITAL AND BETA-NAPHTHOFLAVONE, Method: PREINCUBATION) is “active; positive”.
As for `Cc1ccc2nc3c(c(C)c2c1)[C@@H](O)[C@H](O)c1ccccc1-3`, under setting [2], the mutagenic call is “inactive; negative”.
`COc1nsc2ccc(N)cc12`: the mutagenic call (Test System: AMES SALMONELLA TYPHIMURIUM, Strain/Indicator: TA100, Metabolic Activation: S-9, Method: STANDARD PLATE) was “active; positive”.
`[U]`: the mutagenic call (End Point: In vitro chromosomal aberrations, Test System: Human colon tumor line LT97, Metabolic Activation: None, Method: 24 color FISH) was “active; positive (breaks at tumor-relevant chromosomes 5, 12, and 17); uranium and nitri”.
